Reference: patent publication US8394785B2, “Methods for the treatment and amelioration of urticaria” (Jado Technologies GmbH, priority 2005, dated 2013)

Columns and labels:
[1] = tested on: Rat basophilic leukemia (RBL-2H3) cells; test: Mast cell degranulation assay (β-hexosaminidase release); assay type: cell-based; details: Rattus norvegicus
Method: The assay measures release of β-hexosaminidase as a marker of release of various preformed pharmacological agents in response to clustering of the high affinity IgE receptor (FcεRI) by means of multivalent antigen-IgE complexes. Rat basophilic leukemia (RBL-2H3) cells, a commonly used model of mast cell degranulation, are sensitized with anti-DNP specific IgE and challenged with multivalent DNP-BSA. The release of β-hexosaminidase into the supernatant is measured by enzymatic conversion of the fluorogenic substrate 4-methylumbelliferyl-N-acetyl-β-D-glucosaminide to N-acetyl-β-D-glucosamine and highly fluorescent methylumbelliferone and quantified by fluorescence detection in a Tecan Safire™ plate reader.
RBL-2H3 cells obtained from the German Collection of Microorganisms and Cell Cultures (Braunschweig, Germany) were maintained in 70% Minimum Essential Medium with Earle's Salts/20% RPMI 1640/10% heat-inactivated fetal calf serum) supplemented with 2 mM GlutaMAX™-I in 5% CO2 at 37° C. and routinely checked to be free of mycoplasma contamination. Cells grown in 175 cm^2 flasks were split with 0.05% Trypsin/EDTA and resuspended in 20 ml fresh medium. One hundred and 50 μl cell suspension were plated per well into 24 well cluster plates (Costar, Schiphol-Rijk, Netherlands) and cells were used one or two days after plating, respectively.
Two to 24 hours before incubation with test compounds the medium was removed and cells were sensitized with 0.4 μg/ml anti-DNP IgE in fresh medium. Following sensitization, cells were washed once with warm TyB and incubated for 60 min with test compound at a maximum of 100 μM or the highest non-toxic concentration (total vehicle concentration adjusted to 1%) or 1% vehicle in TyB at 37° C. DNP-HSA (0.1 μg/ml final concentration) or buffer alone was added and cells incubated for 15 min at 37° C. Plates were centrifuged at 4° C. for 5 min at 250×g and immediately transferred to ice. Supernatants were collected and the cells lysed with lysis buffer. Hexosaminidase activity in supernatants and lysates was measured by incubating 25 μl aliquots with 100 μl MUG substrate solution in a 96-well plate at 37° C. for 30 min. The reaction was terminated by addition of 150 μl stop solution. Fluorescence was measured in a Tecan Safire™ plate reader at 365 nm excitation and 440 nm emission settings.
Each compound is tested in duplicates in at least three independent experiments. β-hexosaminidase release is calculated after subtraction of unspecific release (release without addition of antigen) using the formula: % degranulation=100×RFU supernatant/RFU lysate
Inhibition of β-hexosaminidase release with respect to control is calculated as
follows: % inhibition=100×(1−(RFU supernatant of compound/RFU supernatant of control))

[2] = tested on: primary human mast cells (human skin); test: Histamine release assay, anti-IgE induced, primary human mast cells; assay type: cell-based; details: Mast cell, maximal effect at 25 μM, not dependent on pre-incubation time, read-out: maximal inhibitory effect on IgE-induced histamine release
Method: Tissue mast cells were isolated from human skin obtained during cosmetic surgery. Use of human skin was conducted according to the Declaration of Helsinki Principles and was approved by the Institutional Review Board of the Charité—Universitätsmedizin Berlin. For isolation of mast cells, the epidermis was enzymatically detached by an overnight incubation at 4° C. with dispase at a concentration of 1 mg/ml. The remaining dermis was dispersed by incubation with a mix of collagenase I and hyaluronidase for 1 h at 37° C. Dispersion was repeated three times, and the collected cells were washed. […] The final mast cell purity was >90% as measured by Toluidin blue staining. The viability of mast cells was >95% as assessed by Trypan blue staining (Grützkau et al 2000, Artuc et al 2002). The quantification of histamine levels was achieved using an automated histamine-analyser system (Firm Borgwelt Technik). The wavelength of the excitation was 355-360 nm and the emission wavelength of fluorescence measurement was 450-460 nm. The intensity of fluorescence was directly proportional to the concentration of histamine in the samples. The amount of released histamine was calculated according to the following formula: net histamine release=(release−blank)×(100/complete). […]

CCCCCCCCCCCCCCCCOP(=O)([O-])OCC[N+](C)(C)C [Compound 3, 1-hexadecylphosphoryl-choline]
IC50 ([1]; 1 h, concentration at which 50% of maximal inhibition is reached, RBL-2H3, 60 min incubation with compound, DNP antigen challenge, read-out: ID50 (the source's name)): 4.6 µM | inhibition at 10 µM ([1]; RBL-2H3, 10 μM, read-out: maximum inhibition (concentration used)): 87% | inhibition at 25 µM ([1]; RBL-2H3, at or 25 μM, read-out: inhibition of degranulation): > 75% | inhibition at 25 µM [2]: 35%
